Data: patent US7709482B2, “Polycyclic heteroaryl substituted triazoles useful as Axl inhibitors” (Rigel Pharmaceuticals, Inc., priority 2006, dated 2010)

Molecular target: T1, Axl (Homo sapiens, UniProt P30530)
T1 construct: endogenous in cells; host or cells: HeLa cells
T1 sequence (P30530 26-894): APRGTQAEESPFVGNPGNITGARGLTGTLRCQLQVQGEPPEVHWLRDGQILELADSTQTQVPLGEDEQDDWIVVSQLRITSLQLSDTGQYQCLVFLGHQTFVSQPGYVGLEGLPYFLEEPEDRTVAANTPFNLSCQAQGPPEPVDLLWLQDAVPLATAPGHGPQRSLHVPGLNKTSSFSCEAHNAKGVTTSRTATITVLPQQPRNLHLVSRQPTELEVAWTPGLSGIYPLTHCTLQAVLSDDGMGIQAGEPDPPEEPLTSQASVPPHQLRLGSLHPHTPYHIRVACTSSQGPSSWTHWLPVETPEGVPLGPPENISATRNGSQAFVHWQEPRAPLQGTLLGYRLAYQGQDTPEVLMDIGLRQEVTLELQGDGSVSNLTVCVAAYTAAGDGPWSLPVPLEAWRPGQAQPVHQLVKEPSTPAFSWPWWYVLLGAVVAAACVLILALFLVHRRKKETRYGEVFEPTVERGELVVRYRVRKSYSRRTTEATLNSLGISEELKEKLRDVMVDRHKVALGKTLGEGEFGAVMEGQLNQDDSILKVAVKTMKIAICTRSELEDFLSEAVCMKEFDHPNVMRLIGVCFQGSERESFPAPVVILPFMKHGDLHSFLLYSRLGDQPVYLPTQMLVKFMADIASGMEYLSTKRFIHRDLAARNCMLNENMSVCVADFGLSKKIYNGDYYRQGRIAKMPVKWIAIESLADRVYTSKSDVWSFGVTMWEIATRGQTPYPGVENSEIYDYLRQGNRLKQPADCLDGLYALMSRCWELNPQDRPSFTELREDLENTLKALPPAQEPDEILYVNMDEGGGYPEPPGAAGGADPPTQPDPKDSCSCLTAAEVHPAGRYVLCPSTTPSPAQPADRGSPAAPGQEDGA
Assay: Phospho-Akt In-Cell Western Assay (inhibition of Axl activity after Axl-antibody cross-linking)
Assay type: cell-based
Conditions: Hela cells, phospho-Akt chemiluminescence normalized to relative cell number; compounds of formula (Ia), Table 1; read-out: IC50
Protocol: The compounds of the invention were tested in the following assay for their ability to inhibit Axl activity.
Phospho-Akt In-Cell Western Assay
• Cell culture plate: 96 well assay plate (Corning 3610), white, clear bottom, tissue-culture treated. • Cells: Hela cells. • Starvation medium: For Axl stimulation: 0.5% FCS (fetal calf serum) in DMEM, plus Axl/Fc (extracellular domain of AXL fused to immunoglobulin Fc region) (R&D, 154-AL) 500 ng/mL. • For EGF (epidermal growth factor) stimulation: 0.5% FCS in DMEM (Dulbecco's modified Eagles medium). • Poly-L-Lysine 0.01% solution (the working solution): […], dilute In PBS (phosphate buffered saline). • Axl antibody cross-linking: • 1st: Mouse anti-Axl (R&D, MAB154). • 2nd: Biotin-SP-conjugated AffiniPure goat anti-mouse IgG (H+ L) (Jackson ImmunoResearch #115-065-003). • Fixing buffer: 4% formaldehyde in PBS. • Wash buffer: 0.1% TritonX-100 in PBS. • Quenching buffer: 3% H2O2, 0.1% Azide in wash buffer, Azide and hydrogen peroxide (H2O2) are added fresh. • Blocking buffer: 5% BSA in TBST (tris buffered saline plus 0.1% Tween 20). • Primary antibody: Rabbit anti-human Phospho-Akt antibody (Cell Signaling 9271): 1×250 diluted in blocking buffer. • Secondary antibody: HRP (horse radish peroxidase)-conjugated Goat anti-Rabbit secondary, stock solution: Jackson ImmunoResearch (Goat anti-Rabbit HRP, #111-035-144) 1:1 diluted in glycerol, store at −20° C. The working solution: 1×2000 dilution of stock in blocking buffer. • Chemiluminescent working solution (Pierce, 37030): SuperSignal ELISA (enzyme linked immunosorbant assay) Pico Chemiluminescent substrate. • Crystal Violet solution: Stock: 2.5% Crystal violet in methanol, filtered and kept at ambient temperature. The working solution: dilute the stock 1:20 with PBS immediately before use. • 10% SDS: working solution: 5% SDS (sodium dodecylsulfate), diluted in PBS Methods: Day 1:
A 96 well TC (tissue culture treated) plate was coated with 10 μg/mL poly-L-Lysine at 37° C. for 30 min, washed twice with PBS, and air-dried for 5 minutes before cells were added. Hela cells were seeded at 10,000 cells/well and the cells were starved in 100 μL starvation medium containing Axl/Fc for 24 hrs.
The cells were pre-treated with test compounds by adding 100 μL of 2× test compound to the starvation medium on the cells. The cells were incubated at 37° C. for 1 hr before stimulation.
The resulting mix was warmed to 37° C. 50 μL of 5×Axl 1st/2nd of antibody cluster was added to the cells and the cells were incubated at 37° C. for 5 min.
After 5 minutes stimulation, the plate was flicked to remove medium and the plate was tapped onto paper towels. Formaldehyde (4.0% in PBS, 100 μL) was added to fix the cells and the cells were incubated at ambient temperature for 20 min without shaking.
The cells were washed with a plate washer buffer to remove the formaldehyde solution. The plate was flicked to removed excess wash buffer and tapped onto paper towels. Quenching buffer (100 μL) was added to each well and the cells were incubated at ambient temperature for 20 minutes without shaking.
The cells were washed with a plate washer buffer to remove the quenching buffer. Blocking buffer (100 μL) was added and the cells were incubated at ambient temperature for at least an hour with gentle shaking.
The cells were washed with a plate washer buffer and diluted primary antibody (50 μL) was added to each well (blocking buffer was added to the negative control wells instead). The plates were incubated overnight at 4° C. with gentle shaking.
The wash buffer was removed, diluted secondary antibody (100 μL) was added, and the cells were incubated at ambient temperature for 1 hour with gentle shaking. During the incubation, the chemiluminescent reagent was brought to ambient temperature.
The secondary antibody was removed by washing the cells 1× with wash buffer, 1× with PBS by plate washer.

SMILES | IC50 [nM]
Nc1nc(Nc2ccc(C(=O)N3CCC(N4CCCC4)CC3)cc2)nn1-c1cc2c(nn1)-c1ccccc1CCC2 [Compound 22, 1-(6,7-dihydro-5H-benzo[6,7]cyclohepta[1,2-c]pyridazin-3-yl)-N^3-(4-((4-(pyrrolidin-1-yl)piperidin-1-yl)carbonyl)phenyl)-1H-1,2,4-triazole-3,5-diamine] | < 1000
CN(C1CCc2ccc(Nc3nc(N)n(-c4cc5c(nn4)-c4ccccc4CCC5)n3)cc2CC1)C1CC2CCC1C2 (centres unmarked) [Compound 24, 1-(6,7-dihydro-5H-benzo[6,7]cyclohepta[1,2-c]pyridazin-3-yl)-N^3-(7-((bicyclo[2.2.1]heptan-2-yl)(methyl)amino)-6,7,8,9-tetrahydro-5H-benzo[7]annulene-2-yl)-1H-1,2,4-triazole-3,5-diamine] | 1000 to 10000
Nc1nc(Nc2cnc3c(c2)CCN(C2CCCC2)CC3)nn1-c1cc2c(nn1)-c1ccccc1CCC2 [Compound 26, 1-(6,7-dihydro-5H-benzo[6,7]cyclohepta[1,2-c]pyridazin-3-yl)-N^3-(7-cyclopentyl-6,7,8,9-tetrahydro-5H-pyrido[3,2-d]azepin-3-yl)-1H-1,2,4-triazole-3,5-diamine] | 1000 to 10000
CN1CCc2ncc(Nc3nc(N)n(-c4cc5c(nn4)-c4ccccc4CCC5)n3)cc2C1 [Compound 28, 1-(6,7-dihydro-5H-benzo[6,7]cyclohepta[1,2-c]pyridazin-3-yl)-N^3-(6-methyl-5,6,7,8-tetrahydro-1,6-naphthyridin-3-yl)-1H-1,2,4-triazole-3,5-diamine] | < 1000
CN1CCN(C(=O)C2CCc3ncc(Nc4nc(N)n(-c5cc6c(nn5)-c5ccccc5CCC6)n4)cc3C2)CC1 (centres unmarked) [Compound 31, 1-(6,7-dihydro-5H-benzo[6,7]cyclohepta[1,2-c]pyridazin-3-yl)-N^3-(6-(4-methylpiperazin-1-yl)carbonyl-5,6,7,8-tetrahydroquinolin-3-yl)-1H-1,2,4-triazole-3,5-diamine] | < 1000
CN1CCN(c2ccc(Nc3nc(N)n(-c4cc5c(nn4)-c4ccccc4CCC5)n3)cc2)CC1 [Compound 34, 1-(6,7-dihydro-5H-benzo[6,7]cyclohepta[1,2-c]pyridazin-3-yl)-N^3-(4-(4-methylpiperazin-1-yl)phenyl)-1H-1,2,4-triazole-3,5-diamine] | < 1000
CN1CCN(Cc2ccc(Nc3nc(N)n(-c4cc5c(nn4)-c4ccccc4CCC5)n3)cc2)CC1 [Compound 35, 1-(6,7-dihydro-5H-benzo[6,7]cyclohepta[1,2-c]pyridazin-3-yl)-N^3-(4-((4-methylpiperazin-1-yl)methyl)phenyl)-1H-1,2,4-triazole-3,5-diamine] | < 1000
CCN(CC)C1CCN(c2ccc(Nc3nc(N)n(-c4cc5c(nn4)-c4ccccc4CCC5)n3)cc2F)CC1 [Compound 36, 1-(6,7-dihydro-5H-benzo[6,7]cyclohepta[1,2-c]pyridazin-3-yl)-N^3-(3-fluoro-4-(4-(diethylamino)piperidin-1-yl)phenyl)-1H-1,2,4-triazole-3,5-diamine] | < 1000
Nc1nc(Nc2ccc(N3CCN(C4CC5CCC4C5)CC3)cc2)nn1-c1ncnc2c1CCCc1ccccc1-2 (centres unmarked) [Compound 38, 1-(6,7-dihydro-5H-benzo[6,7]cyclohepta[1,2-d]pyrimidin-4-yl)-N3-(4-(4-(bicyclo[2.2.1]heptan-2-yl)piperazin-1-yl)phenyl)-1H-1,2,4-triazole-3,5-diamine] | < 1000

The remaining lines, values ahead:

IC50 [nM] | SMILES
< 1000 | Nc1nc(Nc2ccc3c(c2)CCC(NC2CC4CCC2C4)CC3)nn1-c1cc2c(nn1)-c1ccccc1CCC2 (centres unmarked) [Compound 23, 1-(6,7-dihydro-5H-benzo[6,7]cyclohepta[1,2-c]pyridazin-3-yl)-N^3-(7-((bicyclo[2.2.1]heptan-2-yl)amino)-6,7,8,9-tetrahydro-5H-benzo[7]annulene-2-yl)-1H-1,2,4-triazole-3,5-diamine]
< 1000 | Nc1nc(Nc2ccc(N3CCCN(C4CCCC4)CC3)nc2)nn1-c1cc2c(nn1)-c1ccccc1CCC2 [Compound 25, 1-(6,7-dihydro-5H-benzo[6,7]cyclohepta[1,2-c]pyridazin-3-yl)-N^3-(6-(4-cyclopentyl-1,4-diazepan-1-yl)pyridin-3-yl)-1H-1,2,4-triazole-3,5-diamine]
< 1000 | CN1CCN(c2ccc(Nc3nc(N)n(-c4cc5c(nn4)-c4ccccc4CCC5)n3)cn2)CC1 [Compound 27, 1-(6,7-dihydro-5H-benzo[6,7]cyclohepta[1,2-c]pyridazin-3-yl)-N^3-(6-(4-methylpiperazin-1-yl)pyridin-3-yl)-1H-1,2,4-triazole-3,5-diamine]
1000 to 10000 | Nc1nc(Nc2ccc(N3CCC(N4CCCC4)CC3)nc2)nn1-c1cc2c(nn1)-c1ccccc1CCC2 [Compound 29, 1-(6,7-dihydro-5H-benzo[6,7]cyclohepta[1,2-c]pyridazin-3-yl)-N^3-(6-(4-(pyrrolidin-1-yl)piperidin-1-yl)pyridine-3-yl)-1H-1,2,4-triazole-3,5-diamine]
< 1000 | CN1CCN(C2CCN(c3ccc(Nc4nc(N)n(-c5cc6c(nn5)-c5ccccc5CCC6)n4)cn3)CC2)CC1 [Compound 30, 1-(6,7-dihydro-5H-benzo[6,7]cyclohepta[1,2-c]pyridazin-3-yl)-N^3-(6-(4-(4-methylpiperazin-1-yl)piperidin-1-yl)pyridine-3-yl)-1H-1,2,4-triazole-3,5-diamine]
< 1000 | CCN(CC)C1CCN(c2ccc(Nc3nc(N)n(-c4cc5c(nn4)-c4ccccc4CCC5)n3)cc2F)C1 (centres unmarked) [Compound 32, 1-(6,7-dihydro-5H-benzo[6,7]cyclohepta[1,2-c]pyridazin-3-yl)-N^3-(3-fluoro-4-(3-(diethylamino)pyrrolidin-1-yl)phenyl)-1H-1,2,4-triazole-3,5-diamine]
1000 to 10000 | Nc1nc(Nc2ccc(N3CCN(C4CC5CCC4C5)CC3)cc2)nn1-c1cc2c(nn1)-c1ccccc1CCC2 (centres unmarked) [Compound 33, 1-(6,7-dihydro-5H-benzo[6,7]cyclohepta[1,2-c]pyridazin-3-yl)-N^3-(4-(4-(bicyclo[2.2.1]heptan-2-yl)piperazin-1-yl)phenyl)-1H-1,2,4-triazole-3,5-diamine]
< 1000 | Nc1nc(Nc2ccc(OCCN3CCCC3)cc2)nn1-c1ncnc2c1CCCc1ccccc1-2 [Compound 37, 1-(6,7-dihydro-5H-benzo[6,7]cyclohepta[1,2-d]pyrimidin-4-yl)-N^3-(4-(2-(pyrrolidin-1-yl)ethoxy)phenyl)-1H-1,2,4-triazole-3,5-diamine]
